For assay [1], the target named is Cyclin-dependent kinase 2 (Homo sapiens, UniProt P24941). Put plainly: Selectivity interaction (Kinase panel (enzymatic assay)) EUB0000595a CDK2.
Assay [2] addresses T1, Serine/threonine-protein kinase NLK (Homo sapiens) (UniProt Q9UBE8).
T1 sequence (whole entry): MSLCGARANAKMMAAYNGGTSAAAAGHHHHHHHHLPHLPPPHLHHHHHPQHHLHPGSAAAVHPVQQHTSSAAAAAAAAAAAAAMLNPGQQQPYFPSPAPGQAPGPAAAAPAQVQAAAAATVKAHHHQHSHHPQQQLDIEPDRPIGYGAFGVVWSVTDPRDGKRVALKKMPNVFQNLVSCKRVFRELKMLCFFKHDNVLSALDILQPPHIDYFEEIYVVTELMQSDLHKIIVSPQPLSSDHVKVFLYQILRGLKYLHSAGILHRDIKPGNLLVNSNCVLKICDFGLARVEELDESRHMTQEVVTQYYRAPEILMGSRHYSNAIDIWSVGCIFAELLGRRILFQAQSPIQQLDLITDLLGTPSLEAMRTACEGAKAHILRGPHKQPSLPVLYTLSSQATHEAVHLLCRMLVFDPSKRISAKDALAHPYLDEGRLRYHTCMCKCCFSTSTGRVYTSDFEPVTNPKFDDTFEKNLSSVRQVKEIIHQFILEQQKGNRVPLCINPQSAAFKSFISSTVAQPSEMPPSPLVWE
Put plainly: Selectivity interaction (KinomeScan (DiscoverX)) EUB0000666a NLK. The note with it: at 10 µM.

In assay [3] the target is Ephrin type-A receptor 2 (Homo sapiens) (UniProt P29317). The note with it: at 10 µM.
In assay [4] the target is T2, Serine/threonine-protein kinase tousled-like 1 (Homo sapiens) (UniProt Q9UKI8).
T2 sequence (whole entry): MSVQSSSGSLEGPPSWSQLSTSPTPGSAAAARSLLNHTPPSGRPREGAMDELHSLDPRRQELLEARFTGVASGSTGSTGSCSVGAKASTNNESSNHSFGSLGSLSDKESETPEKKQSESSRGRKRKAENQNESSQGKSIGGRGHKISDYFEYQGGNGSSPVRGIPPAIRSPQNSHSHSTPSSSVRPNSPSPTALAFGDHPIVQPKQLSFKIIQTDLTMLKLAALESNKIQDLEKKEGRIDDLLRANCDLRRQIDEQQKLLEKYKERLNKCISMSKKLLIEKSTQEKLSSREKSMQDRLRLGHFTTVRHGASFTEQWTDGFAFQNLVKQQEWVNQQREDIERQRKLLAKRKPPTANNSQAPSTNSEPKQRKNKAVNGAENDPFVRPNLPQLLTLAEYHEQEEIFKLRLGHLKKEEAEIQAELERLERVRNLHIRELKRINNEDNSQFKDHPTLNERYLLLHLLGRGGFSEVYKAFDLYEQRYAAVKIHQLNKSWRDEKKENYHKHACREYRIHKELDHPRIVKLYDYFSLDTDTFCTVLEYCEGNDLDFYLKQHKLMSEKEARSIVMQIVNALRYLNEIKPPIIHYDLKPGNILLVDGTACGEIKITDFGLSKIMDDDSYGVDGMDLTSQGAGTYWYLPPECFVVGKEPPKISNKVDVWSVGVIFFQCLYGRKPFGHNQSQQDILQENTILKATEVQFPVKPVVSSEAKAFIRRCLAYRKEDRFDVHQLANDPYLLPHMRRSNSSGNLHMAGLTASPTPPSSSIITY
Put plainly: Selectivity interaction (ActivX KiNativ screen (kinase selectivity in THP-1 cell lysates)) EUB0000639a TLK1. Conditions: lysate, at 0.04 µM. It counts as subcellular.

For assay [5], the target named is Microtubule-associated serine/threonine-protein kinase 1 (Homo sapiens) (UniProt Q9Y2H9). Put plainly: Selectivity interaction (ActivX KiNativ screen (kinase selectivity in THP-1 cell lysates)) EUB0000639a MAST1. Conditions: lysate. In kind it is subcellular.
The target of assay [6] is Cyclin-dependent kinase 4 (Homo sapiens, UniProt P11802). Put plainly: Selectivity interaction (ActivX KiNativ screen (kinase selectivity in THP-1 cell lysates)) EUB0000639a CDK4. In kind it is subcellular. Conditions: lysate.
The target in assay [7] is cAMP-dependent protein kinase catalytic subunit alpha (Homo sapiens, UniProt P17612). Put plainly: Selectivity interaction (KinomeScan (DiscoverX)) EUB0000045b PRKACA.
Assay [8] addresses Serine/threonine-protein kinase PLK2 (Homo sapiens, UniProt Q9NYY3). Put plainly: Selectivity interaction (KinomeScan (DiscoverX)) EUB0000655a PLK2. The note with it: at 10 µM.
In assay [9] the target is T3, Peripheral plasma membrane protein CASK (Homo sapiens) (UniProt O14936).
T3 sequence (whole entry): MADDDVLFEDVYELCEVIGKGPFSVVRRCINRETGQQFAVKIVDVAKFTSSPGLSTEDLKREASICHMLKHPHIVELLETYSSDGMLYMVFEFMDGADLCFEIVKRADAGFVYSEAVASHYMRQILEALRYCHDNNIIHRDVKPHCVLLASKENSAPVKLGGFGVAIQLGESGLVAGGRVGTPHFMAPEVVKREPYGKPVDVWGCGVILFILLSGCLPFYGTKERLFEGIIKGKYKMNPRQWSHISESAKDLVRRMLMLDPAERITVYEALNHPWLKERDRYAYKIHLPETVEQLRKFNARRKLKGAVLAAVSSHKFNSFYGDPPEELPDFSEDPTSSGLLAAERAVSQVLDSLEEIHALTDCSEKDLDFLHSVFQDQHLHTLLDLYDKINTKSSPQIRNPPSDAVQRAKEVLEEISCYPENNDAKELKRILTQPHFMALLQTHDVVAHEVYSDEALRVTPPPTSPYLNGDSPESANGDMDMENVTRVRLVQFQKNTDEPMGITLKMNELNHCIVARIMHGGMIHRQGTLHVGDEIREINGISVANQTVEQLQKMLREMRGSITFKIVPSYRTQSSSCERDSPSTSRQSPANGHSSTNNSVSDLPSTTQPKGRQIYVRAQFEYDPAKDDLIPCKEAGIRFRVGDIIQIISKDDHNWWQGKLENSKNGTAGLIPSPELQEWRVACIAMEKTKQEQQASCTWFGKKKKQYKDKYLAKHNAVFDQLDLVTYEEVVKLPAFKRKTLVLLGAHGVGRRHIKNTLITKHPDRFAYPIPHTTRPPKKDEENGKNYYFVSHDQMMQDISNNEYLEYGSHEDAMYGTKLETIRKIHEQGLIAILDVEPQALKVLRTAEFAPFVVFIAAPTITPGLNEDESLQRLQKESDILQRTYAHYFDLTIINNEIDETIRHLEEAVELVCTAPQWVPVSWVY
Put plainly: Selectivity interaction (Kinase panel (DSF assay)) EUB0001558a CASK. Background: Differential scanning fluorimetry follows unfolding on heating by fluorescence.

For assay [10], the target named is Fibroblast growth factor receptor 4 (Homo sapiens, UniProt P22455). Put plainly: Selectivity interaction (KinomeScan (DiscoverX)) EUB0000229b FGFR4. Conditions: at 10 µM.

pIC50: −log10 of the molar value.

Sequence of Microtubule-associated serine/threonine-protein kinase 1 (Homo sapiens) (Q9Y2H9 whole entry, looked up): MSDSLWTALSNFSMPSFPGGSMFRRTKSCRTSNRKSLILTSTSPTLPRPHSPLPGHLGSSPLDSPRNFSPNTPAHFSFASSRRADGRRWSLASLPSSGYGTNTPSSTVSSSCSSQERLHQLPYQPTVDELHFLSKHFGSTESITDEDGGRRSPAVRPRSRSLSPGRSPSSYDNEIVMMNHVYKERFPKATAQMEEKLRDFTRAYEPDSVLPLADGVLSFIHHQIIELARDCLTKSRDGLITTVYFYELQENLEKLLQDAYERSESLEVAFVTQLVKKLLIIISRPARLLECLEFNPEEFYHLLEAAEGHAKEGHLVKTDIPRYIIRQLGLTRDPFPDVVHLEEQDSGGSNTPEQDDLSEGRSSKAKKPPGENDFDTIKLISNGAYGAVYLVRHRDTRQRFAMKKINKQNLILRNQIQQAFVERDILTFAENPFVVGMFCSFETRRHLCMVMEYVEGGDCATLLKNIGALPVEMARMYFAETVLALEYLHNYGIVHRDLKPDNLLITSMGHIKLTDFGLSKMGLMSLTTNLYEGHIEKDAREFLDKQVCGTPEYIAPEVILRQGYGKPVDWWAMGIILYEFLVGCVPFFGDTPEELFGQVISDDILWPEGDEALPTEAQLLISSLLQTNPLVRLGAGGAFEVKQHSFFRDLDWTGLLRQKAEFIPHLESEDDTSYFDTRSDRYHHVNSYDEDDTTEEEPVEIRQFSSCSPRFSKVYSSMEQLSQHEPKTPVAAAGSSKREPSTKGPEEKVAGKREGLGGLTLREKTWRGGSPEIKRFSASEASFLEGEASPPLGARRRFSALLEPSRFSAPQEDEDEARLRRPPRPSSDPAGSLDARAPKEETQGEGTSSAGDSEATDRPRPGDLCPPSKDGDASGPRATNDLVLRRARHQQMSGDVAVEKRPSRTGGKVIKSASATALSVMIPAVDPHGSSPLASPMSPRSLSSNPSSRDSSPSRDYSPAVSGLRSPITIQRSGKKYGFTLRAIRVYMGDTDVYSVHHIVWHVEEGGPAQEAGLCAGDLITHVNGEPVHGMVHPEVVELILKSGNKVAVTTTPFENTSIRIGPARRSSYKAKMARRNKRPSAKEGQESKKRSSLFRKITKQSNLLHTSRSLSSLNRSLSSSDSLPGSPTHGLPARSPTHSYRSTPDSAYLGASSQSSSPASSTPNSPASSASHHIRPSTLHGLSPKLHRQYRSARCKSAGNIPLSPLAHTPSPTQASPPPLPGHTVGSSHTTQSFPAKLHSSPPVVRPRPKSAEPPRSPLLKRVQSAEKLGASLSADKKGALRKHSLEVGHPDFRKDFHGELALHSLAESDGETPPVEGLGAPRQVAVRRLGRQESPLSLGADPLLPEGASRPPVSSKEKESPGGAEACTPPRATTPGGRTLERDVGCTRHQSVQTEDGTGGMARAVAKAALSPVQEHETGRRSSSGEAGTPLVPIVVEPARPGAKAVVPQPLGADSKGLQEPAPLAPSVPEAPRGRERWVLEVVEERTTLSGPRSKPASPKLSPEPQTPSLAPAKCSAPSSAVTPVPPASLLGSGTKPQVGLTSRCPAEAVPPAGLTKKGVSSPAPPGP
Sequence of Cyclin-dependent kinase 4 (P11802 whole entry): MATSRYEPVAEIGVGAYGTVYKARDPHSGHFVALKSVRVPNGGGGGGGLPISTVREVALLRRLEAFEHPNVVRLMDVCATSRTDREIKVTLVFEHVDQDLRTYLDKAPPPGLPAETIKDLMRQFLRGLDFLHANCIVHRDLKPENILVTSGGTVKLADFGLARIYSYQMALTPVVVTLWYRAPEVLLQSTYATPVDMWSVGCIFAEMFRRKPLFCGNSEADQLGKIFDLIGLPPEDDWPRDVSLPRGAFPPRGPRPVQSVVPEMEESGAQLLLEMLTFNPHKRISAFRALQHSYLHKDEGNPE
Sequence of Ephrin type-A receptor 2 (Homo sapiens) (P29317 whole entry): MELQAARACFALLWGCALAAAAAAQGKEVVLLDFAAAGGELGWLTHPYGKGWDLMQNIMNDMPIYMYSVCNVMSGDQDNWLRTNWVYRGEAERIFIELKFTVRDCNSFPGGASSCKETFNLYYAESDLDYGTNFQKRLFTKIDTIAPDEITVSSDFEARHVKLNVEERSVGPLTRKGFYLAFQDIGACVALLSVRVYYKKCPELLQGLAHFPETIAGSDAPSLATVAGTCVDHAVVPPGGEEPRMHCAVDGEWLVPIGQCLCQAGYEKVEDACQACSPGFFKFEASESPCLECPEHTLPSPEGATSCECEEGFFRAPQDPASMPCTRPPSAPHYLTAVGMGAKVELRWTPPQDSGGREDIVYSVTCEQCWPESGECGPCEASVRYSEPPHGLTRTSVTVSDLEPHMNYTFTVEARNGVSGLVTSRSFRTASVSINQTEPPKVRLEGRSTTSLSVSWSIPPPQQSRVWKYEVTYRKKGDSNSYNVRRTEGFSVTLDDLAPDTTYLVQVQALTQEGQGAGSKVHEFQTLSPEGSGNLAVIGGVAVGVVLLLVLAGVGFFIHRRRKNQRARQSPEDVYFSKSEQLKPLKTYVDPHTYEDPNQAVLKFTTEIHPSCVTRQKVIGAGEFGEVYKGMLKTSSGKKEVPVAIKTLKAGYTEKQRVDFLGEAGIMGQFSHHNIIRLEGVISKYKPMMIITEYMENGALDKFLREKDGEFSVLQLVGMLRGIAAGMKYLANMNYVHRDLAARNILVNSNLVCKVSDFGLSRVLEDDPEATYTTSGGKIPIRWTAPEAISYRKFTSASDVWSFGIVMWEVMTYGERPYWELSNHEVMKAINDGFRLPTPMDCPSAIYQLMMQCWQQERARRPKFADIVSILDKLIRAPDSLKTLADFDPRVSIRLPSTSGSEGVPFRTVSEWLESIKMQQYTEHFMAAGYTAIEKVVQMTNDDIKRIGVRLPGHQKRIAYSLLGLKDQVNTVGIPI
Sequence of Serine/threonine-protein kinase PLK2 (Q9NYY3 whole entry, looked up): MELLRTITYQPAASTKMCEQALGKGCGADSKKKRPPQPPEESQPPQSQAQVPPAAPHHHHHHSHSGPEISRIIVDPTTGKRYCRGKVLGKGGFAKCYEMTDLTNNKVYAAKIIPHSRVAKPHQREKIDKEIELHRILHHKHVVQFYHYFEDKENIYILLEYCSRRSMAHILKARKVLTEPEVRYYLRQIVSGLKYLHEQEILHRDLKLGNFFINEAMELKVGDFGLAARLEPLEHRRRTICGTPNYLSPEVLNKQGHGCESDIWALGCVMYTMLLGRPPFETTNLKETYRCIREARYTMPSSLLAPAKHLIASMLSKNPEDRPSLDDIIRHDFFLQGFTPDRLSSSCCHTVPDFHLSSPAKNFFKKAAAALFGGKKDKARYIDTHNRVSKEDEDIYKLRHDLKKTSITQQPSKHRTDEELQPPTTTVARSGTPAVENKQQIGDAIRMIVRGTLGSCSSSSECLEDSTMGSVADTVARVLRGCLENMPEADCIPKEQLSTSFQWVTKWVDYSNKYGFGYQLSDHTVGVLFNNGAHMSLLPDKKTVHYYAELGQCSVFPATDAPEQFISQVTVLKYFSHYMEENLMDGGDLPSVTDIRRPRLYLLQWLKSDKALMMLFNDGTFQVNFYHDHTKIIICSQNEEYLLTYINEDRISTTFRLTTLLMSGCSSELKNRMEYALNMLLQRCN
Sequence of Fibroblast growth factor receptor 4 (P22455 22-802 limits assumed): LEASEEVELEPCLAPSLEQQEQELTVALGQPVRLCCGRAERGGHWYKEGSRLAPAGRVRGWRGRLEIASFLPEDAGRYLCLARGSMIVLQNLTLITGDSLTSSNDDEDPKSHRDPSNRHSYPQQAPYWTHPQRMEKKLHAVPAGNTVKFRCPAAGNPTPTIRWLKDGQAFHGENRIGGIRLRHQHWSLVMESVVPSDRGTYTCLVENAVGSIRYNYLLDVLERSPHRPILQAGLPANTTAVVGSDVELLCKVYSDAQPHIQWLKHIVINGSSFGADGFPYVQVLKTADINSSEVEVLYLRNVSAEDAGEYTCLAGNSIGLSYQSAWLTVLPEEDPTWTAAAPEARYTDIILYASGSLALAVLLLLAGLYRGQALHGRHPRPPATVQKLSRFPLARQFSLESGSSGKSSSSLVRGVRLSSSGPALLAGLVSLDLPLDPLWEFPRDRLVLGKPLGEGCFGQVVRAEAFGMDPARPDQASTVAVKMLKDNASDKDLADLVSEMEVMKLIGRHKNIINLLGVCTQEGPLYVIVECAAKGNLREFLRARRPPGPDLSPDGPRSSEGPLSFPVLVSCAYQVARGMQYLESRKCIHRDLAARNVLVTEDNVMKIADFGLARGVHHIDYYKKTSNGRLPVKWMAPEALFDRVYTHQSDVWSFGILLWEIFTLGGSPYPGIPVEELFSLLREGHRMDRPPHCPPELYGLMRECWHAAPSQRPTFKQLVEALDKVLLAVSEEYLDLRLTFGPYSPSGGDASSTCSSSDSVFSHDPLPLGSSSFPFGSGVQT

By pIC50 is commonly meant −log10 of the IC50, conventionally taken in molar units. In [1], `COCC(=O)NC/C=C/c1ccc2ncnc(Nc3ccc(Oc4ccc(C)nc4)c(C)c3)c2c1` [CP-724714] showed a negative-log IC50 (pIC50) of under 5.00.

Take `O=C(NOC[C@H](O)CO)c1ccc(F)c(F)c1Nc1ccc(I)cc1F`: the % of control in [2] was determined as 77%.

`Cc1cc([C@@H](C)Nc2ccccc2C(=O)O)c2nc(N3CCOCC3)cc(=O)n2c1` [AZD-6482] returned a % of control in assay [3] of 70%.

Take `CC[C@@H]1[C@H](F)C(=O)N[C@@H]1COc1nccc2cc(C(N)=O)c(OC)cc12` [ZIMLOVISERTIB]: the % of inhibition in assay [4] is -7.3%; in assay [5] (at 0.01 µM), -0.4%; in [5] (at 0.04 µM), -2.4%; in assay [5] (at 0.2 µM), -2.5%; in assay [5] (at 1 µM), -1.4%; in assay [5] (at 5 µM), -30.3%. For the same molecule, the % of inhibition was -1.8% in assay [6] (at 0.01 µM); -3.4% in [6] (at 0.04 µM); -2.3% in assay [6] (at 0.2 µM); -9.6% in assay [6] (at 1 µM); -24.4% in [6] (at 5 µM).

Turning to `C=CC(=O)Nc1cc(-n2c(=O)ccc3cnc4ccc(-c5ccc(NS(C)(=O)=O)cc5)cc4c32)ccc1C`, the % of control is 83% in assay [7] (at 1 µM) and 100% in assay [7] (at 10 µM).

Take `CN(C)CCOc1ccc(-c2nc(-c3ccncc3)c(-c3ccc4c(c3)CC/C4=N\O)[nH]2)cc1`: the % of control in [8] was found to be 92%.

For the molecule `CC(C)(O)[C@H](F)CN1Cc2cc(NC(=O)c3cnn4cccnc34)c(N3CCOCC3)cc2C1=O`, the dTM in assay [9] was -0.5 K.

`COc1cc(N(C)c2ccnc3ccc(C(F)(F)F)cc23)cc(OC)c1OC`: the % binding in assay [10] came out at 100%.

Values taken from ChEMBL document CHEMBL5465560, “Selectivity Literature for EUbOPEN Chemogenomic Library” (2024).
